Publication PMC6132687, “Stem cells are the most sensitive screening tool to identify toxicity of GATA4-targeted novel small-molecule compounds” (Archives of Toxicology, 2018)

Experiments:
hiPSC-CMs = assay: MTT assay in hiPSC-CMs; type: cell-based, human; conditions: 24 h
Method: (§1) The cells were exposed to the test compounds for 24 h and cytotoxicity was quantified with MTT and LDH assays as described previously (Talman et al. [2011]). For the determination of cell membrane integrity, 50 µl of medium from each well was transferred onto a new 96-well plate followed by addition of 50 µl of substrate solution containing 1.3 mM β-nicotinamide adenine dinucleotide, 660 µM iodonitrotetrazolium, 54 mM L(+)-lactic acid, 280 µM phenazine methosulphate and 0.2 M Tris–HCl (pH 8.0). After a 30-min incubation, the reaction was stopped by adding 50 µl of 1 M acetic acid to each well and absorbance was measured at 490 nm using Victor2 plate reader (PerkinElmer, Turku, Finland). Spontaneous LDH release was measured from untreated cells, maximal LDH release from cells lysed with 0.9% Triton X-100 and background absorbance was measured from wells without cells. After background extraction, cytotoxicity was calculated as follows: cytotoxicity (%) = [(sample − spontaneous LDH release)/(maximal LDH release − spontaneous LDH release)] × 100. For quantification of metabolic activity, 3-(4,5-dimethylthiazol-2-yl)-2,5-diphenyltetrazolium bromide (MTT) was added to the cells at a final concentration of 0.5 mg/ml followed by 2 h incubation in cell culture conditions. […] Absorbance was measured at 550 nm and absorbance at 650 nm was subtracted as background. […]

MEFs = assay: MTT assay in MEFs; type: cell-based, mouse; conditions: 24 h, 30 µM, not statistically significant
Method: as §1

[1] = test system: GATA4–NKX2-5 transcriptional synergy; parameters: method as in Välimäki et al. [2017]; conditions: ref Välimäki et al. [2017]; cited from earlier work
[2] = test system: stretch-induced cardiomyocyte hypertrophy; parameters: method as in Välimäki et al. [2017]; conditions: ref Välimäki et al. [2017]; cited from earlier work
NRVCs = test system: NRVCs; parameters: method as in Välimäki et al. [2017]; conditions: concentrations up to 50 µM; ref Välimäki et al. [2017]; cited from earlier work

## CCN(CC)c1ccc(NC(=O)c2c(C)noc2-c2cc(C)on2)cc1 [3i-1047]
hiPSC-CMs
  increase in hiPSC-CM metabolic activity: 51%

## CCC(=O)N(Cc1ccc(N(CC)CC)cc1)c1c(-c2ccccc2)noc1C [3i-1120]
MEFs
  toxicity in MEFs: modest toxicity

## CCN(CC)c1ccc(NC(=O)c2c(-c3ccccc3)noc2C)cc1 [3i-1000]
[1]
  GATA4-induced synergistic transactivation of a promoter sequence containing NKX2-5 binding sites: inhibits
[2]
  stretch-induced cardiomyocyte hypertrophy: attenuates
NRVCs
  toxicity in NRVCs: no toxicity
